Assay results published in PubChem BioAssay (NCI).
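Method: 48-hour compound exposure of cells in 96-well plates, five concentrations, linear interpolation of endpoints. GI50 is the concentration that inhibits growth by half. TGI marks complete inhibition of growth.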

Columns and labels:
Experiment in all cases: growth of human tumour cells (NCI), 48 h
LOX IMVI melanoma = test system: LOX IMVI melanoma
DMS 114 small cell lung = test system: DMS 114 small cell lung
HL-60(TB) leukemia = test system: HL-60(TB) leukemia
EKVX NSCLC = test system: EKVX NSCLC
SF-539 CNS = test system: SF-539 CNS
HOP-62 NSCLC = test system: HOP-62 NSCLC
HOP-92 NSCLC = test system: HOP-92 NSCLC
UO-31 renal = test system: UO-31 renal
ACHN renal = test system: ACHN renal
M19-MEL melanoma = test system: M19-MEL melanoma
SK-MEL-28 melanoma = test system: SK-MEL-28 melanoma
SK-OV-3 ovarian = test system: SK-OV-3 ovarian
OVCAR-5 ovarian = test system: OVCAR-5 ovarian
SR leukemia = test system: SR leukemia
SW-620 colon = test system: SW-620 colon
LXFL 529 NSCLC = test system: LXFL 529 NSCLC
COLO 205 colon = test system: COLO 205 colon
OVCAR-8 ovarian = test system: OVCAR-8 ovarian
IGROV1 ovarian = test system: IGROV1 ovarian
K-562 leukemia = test system: K-562 leukemia
SK-MEL-2 melanoma = test system: SK-MEL-2 melanoma
TK-10 renal = test system: TK-10 renal
SNB-19 CNS = test system: SNB-19 CNS
RPMI-8226 leukemia = test system: RPMI-8226 leukemia
HCC-2998 colon = test system: HCC-2998 colon
SN12C renal = test system: SN12C renal
786-0 renal = test system: 786-0 renal
HCT-15 colon = test system: HCT-15 colon
OVCAR-3 ovarian = test system: OVCAR-3 ovarian
KM12 colon = test system: KM12 colon
HCT-116 colon = test system: HCT-116 colon
NCI-H522 lung = test system: NCI-H522 lung
MOLT-4 leukemia = test system: MOLT-4 leukemia
UACC-62 melanoma = test system: UACC-62 melanoma
NCI-H226 lung = test system: NCI-H226 lung
SNB-78 CNS = test system: SNB-78 CNS
SF-268 CNS = test system: SF-268 CNS
U251 CNS = test system: U251 CNS
NCI-H23 lung = test system: NCI-H23 lung
CCRF-CEM leukemia = test system: CCRF-CEM leukemia
A549 NSCLC = test system: A549 NSCLC
CAKI-1 renal = test system: CAKI-1 renal
UACC-257 melanoma = test system: UACC-257 melanoma
M14 melanoma = test system: M14 melanoma
SK-MEL-5 melanoma = test system: SK-MEL-5 melanoma
MALME-3M melanoma = test system: MALME-3M melanoma
KM20L2 colon = test system: KM20L2 colon
OVCAR-4 ovarian = test system: OVCAR-4 ovarian
SNB-75 CNS = test system: SNB-75 CNS
SF-295 CNS = test system: SF-295 CNS
A498 renal = test system: A498 renal
NCI-H460 lung = test system: NCI-H460 lung
HT29 colon = test system: HT29 colon
RXF 393 renal = test system: RXF 393 renal
MDA-N = test system: MDA-N
T-47D breast = test system: T-47D breast
MDA-MB-435 = test system: MDA-MB-435
HS 578T breast = test system: HS 578T breast
BT-549 breast = test system: BT-549 breast
MDA-MB-231 breast = test system: MDA-MB-231 breast
MCF7 breast = test system: MCF7 breast
NCI/ADR-RES ovarian = test system: NCI/ADR-RES ovarian
DU-145 prostate = test system: DU-145 prostate
PC-3 prostate = test system: PC-3 prostate

CCOC(=O)/C(=C/c1ccc(C(=O)OC)cc1)N(CC)CC
TGI (LOX IMVI melanoma): > 100 µM
TGI (DMS 114 small cell lung): > 100 µM
TGI (HL-60(TB) leukemia): 69.4 µM
TGI (EKVX NSCLC): > 100 µM
TGI (SF-539 CNS): 60.1 µM
TGI (HOP-62 NSCLC): > 100 µM
TGI (HOP-92 NSCLC): > 100 µM
TGI (UO-31 renal): > 100 µM
TGI (ACHN renal): > 100 µM
TGI (M19-MEL melanoma): > 100 µM
TGI (SK-MEL-28 melanoma): > 100 µM
TGI (SK-OV-3 ovarian): > 100 µM
TGI (OVCAR-5 ovarian): > 100 µM
TGI (SR leukemia): > 100 µM
TGI (SW-620 colon): > 100 µM
TGI (LXFL 529 NSCLC): > 100 µM
TGI (COLO 205 colon): > 100 µM
TGI (OVCAR-8 ovarian): > 100 µM
TGI (IGROV1 ovarian): > 100 µM
TGI (K-562 leukemia): 82.7 µM
TGI (SK-MEL-2 melanoma): > 100 µM
TGI (TK-10 renal): > 100 µM
TGI (SNB-19 CNS): > 100 µM
TGI (RPMI-8226 leukemia): > 100 µM
TGI (HCC-2998 colon): > 100 µM
TGI (SN12C renal): > 100 µM
TGI (786-0 renal): > 100 µM
TGI (HCT-15 colon): > 100 µM
TGI (OVCAR-3 ovarian): 60 µM
TGI (KM12 colon): > 100 µM
TGI (HCT-116 colon): > 100 µM
TGI (NCI-H522 lung): > 100 µM
TGI (MOLT-4 leukemia): > 100 µM
TGI (UACC-62 melanoma): > 100 µM
TGI (NCI-H226 lung): 79 µM
TGI (SNB-78 CNS): 91.7 µM
TGI (SF-268 CNS): > 100 µM
TGI (U251 CNS): > 100 µM
TGI (NCI-H23 lung): > 100 µM
TGI (CCRF-CEM leukemia): 93.7 µM
TGI (A549 NSCLC): > 100 µM
TGI (CAKI-1 renal): > 100 µM
TGI (UACC-257 melanoma): > 100 µM
TGI (M14 melanoma): > 100 µM
TGI (SK-MEL-5 melanoma): > 100 µM
TGI (MALME-3M melanoma): > 100 µM
TGI (KM20L2 colon): > 100 µM
TGI (OVCAR-4 ovarian): > 100 µM

O=C([CH-]C(=O)c1ccccc1)c1ccccc1.[CH-]1CCCCC1.[CH-]1CCCCC1.[CH-]1CCCCC1.[Sn+4]
GI50 (SNB-75 CNS): 7.09 µM
TGI (SNB-75 CNS): 21.3 µM
GI50 (LOX IMVI melanoma): 4.61 µM
TGI (LOX IMVI melanoma): 18.9 µM
GI50 (HL-60(TB) leukemia): 2.28 µM
TGI (HL-60(TB) leukemia): 6.59 µM
GI50 (EKVX NSCLC): 10.7 µM
TGI (EKVX NSCLC): 32.6 µM
GI50 (SF-539 CNS): 10.4 µM
TGI (SF-539 CNS): 27 µM
GI50 (HOP-62 NSCLC): 7.85 µM
TGI (HOP-62 NSCLC): 20 µM
GI50 (UO-31 renal): 12.5 µM
TGI (UO-31 renal): 25 µM
GI50 (ACHN renal): 13.8 µM
TGI (ACHN renal): 31.9 µM
GI50 (SK-OV-3 ovarian): 43.5 µM
TGI (SK-OV-3 ovarian): 68.6 µM
GI50 (SF-295 CNS): 8.1 µM
TGI (SF-295 CNS): 22.1 µM
GI50 (OVCAR-5 ovarian): 22.8 µM
TGI (OVCAR-5 ovarian): 39.7 µM
GI50 (SW-620 colon): 3 µM
TGI (SW-620 colon): 9.72 µM
GI50 (COLO 205 colon): 4.15 µM
TGI (COLO 205 colon): 16.2 µM
GI50 (OVCAR-8 ovarian): 5.47 µM
TGI (OVCAR-8 ovarian): 55.4 µM
GI50 (IGROV1 ovarian): 11.8 µM
TGI (IGROV1 ovarian): 33.4 µM
GI50 (K-562 leukemia): 2.31 µM
TGI (K-562 leukemia): 6.15 µM
GI50 (SK-MEL-2 melanoma): 3.39 µM
TGI (SK-MEL-2 melanoma): 11.9 µM
GI50 (A498 renal): 15.4 µM
TGI (A498 renal): 28.9 µM
GI50 (NCI-H460 lung): 8.88 µM
GI50 (TK-10 renal): 12.1 µM
TGI (TK-10 renal): 26.1 µM
GI50 (SNB-19 CNS): 5.43 µM
TGI (SNB-19 CNS): 18.4 µM
GI50 (RPMI-8226 leukemia): 2.32 µM
TGI (RPMI-8226 leukemia): 5.22 µM
GI50 (HCC-2998 colon): 6.1 µM
TGI (HCC-2998 colon): 18.9 µM
GI50 (SN12C renal): 4.35 µM
TGI (SN12C renal): 16.1 µM
GI50 (786-0 renal): 4.25 µM
TGI (786-0 renal): 15.1 µM
GI50 (HCT-15 colon): 5.67 µM
TGI (HCT-15 colon): 18.4 µM
GI50 (OVCAR-3 ovarian): 5.89 µM
TGI (OVCAR-3 ovarian): 19.8 µM
GI50 (HT29 colon): 14 µM
TGI (HT29 colon): 38.5 µM
GI50 (KM12 colon): 10.8 µM
TGI (KM12 colon): 24.2 µM
GI50 (HCT-116 colon): 6.3 µM
TGI (HCT-116 colon): 19.9 µM
GI50 (RXF 393 renal): 2.71 µM
TGI (RXF 393 renal): 10.1 µM
GI50 (NCI-H522 lung): 2.03 µM
TGI (NCI-H522 lung): 5.26 µM
GI50 (MOLT-4 leukemia): 2.41 µM
TGI (MOLT-4 leukemia): 7.47 µM
GI50 (UACC-62 melanoma): 4.34 µM
TGI (UACC-62 melanoma): 15.6 µM
GI50 (NCI-H226 lung): 5.73 µM
TGI (NCI-H226 lung): 39.3 µM
GI50 (SF-268 CNS): 7.64 µM
TGI (SF-268 CNS): 24.1 µM
GI50 (U251 CNS): 6.86 µM
TGI (U251 CNS): 20.8 µM
GI50 (NCI-H23 lung): 6.06 µM
TGI (NCI-H23 lung): 20.3 µM
GI50 (A549 NSCLC): 15.5 µM
TGI (A549 NSCLC): 38.6 µM
GI50 (CAKI-1 renal): 4.52 µM
TGI (CAKI-1 renal): 18.1 µM
GI50 (UACC-257 melanoma): 4.29 µM
TGI (UACC-257 melanoma): 19.2 µM
GI50 (M14 melanoma): 8.3 µM
TGI (M14 melanoma): 22.4 µM
GI50 (SK-MEL-5 melanoma): 6.58 µM
TGI (SK-MEL-5 melanoma): 19.1 µM
GI50 (MALME-3M melanoma): 8.75 µM
TGI (MALME-3M melanoma): 22.1 µM
GI50 (KM20L2 colon): 12.3 µM
TGI (KM20L2 colon): 26.3 µM

NCC(O)CNC(=O)c1ccc(-c2ccc(-c3ccc(C(=O)NCC(O)CN)cc3)o2)cc1 (stereo unspecified)
TGI (SNB-75 CNS): 49.5 µM
TGI (LOX IMVI melanoma): > 100 µM
TGI (HL-60(TB) leukemia): > 100 µM
TGI (EKVX NSCLC): 70.3 µM
TGI (SF-539 CNS): 41.6 µM
TGI (MDA-N): > 100 µM
TGI (HOP-62 NSCLC): 74.4 µM
TGI (HOP-92 NSCLC): 52.1 µM
TGI (UO-31 renal): > 100 µM
TGI (ACHN renal): > 100 µM
TGI (SK-MEL-28 melanoma): > 100 µM
TGI (SK-OV-3 ovarian): 58 µM
TGI (T-47D breast): 92.6 µM
TGI (SF-295 CNS): 56.6 µM
TGI (OVCAR-5 ovarian): > 100 µM
TGI (SR leukemia): > 100 µM
TGI (MDA-MB-435): > 100 µM
TGI (SW-620 colon): > 100 µM
TGI (COLO 205 colon): > 100 µM
TGI (OVCAR-8 ovarian): > 100 µM
TGI (IGROV1 ovarian): > 100 µM
TGI (K-562 leukemia): > 100 µM
TGI (SK-MEL-2 melanoma): > 100 µM
TGI (A498 renal): 73.5 µM
TGI (NCI-H460 lung): > 100 µM
TGI (TK-10 renal): 38.9 µM
TGI (SNB-19 CNS): 46.2 µM
TGI (RPMI-8226 leukemia): > 100 µM
TGI (HCC-2998 colon): 96.5 µM
TGI (SN12C renal): 68.9 µM
TGI (HS 578T breast): 59.7 µM
TGI (BT-549 breast): 88.5 µM
TGI (786-0 renal): 48.5 µM
TGI (HCT-15 colon): > 100 µM
TGI (OVCAR-3 ovarian): 46.5 µM
TGI (HT29 colon): > 100 µM
TGI (KM12 colon): > 100 µM
TGI (HCT-116 colon): 52.4 µM
TGI (MDA-MB-231 breast): 54.2 µM
TGI (RXF 393 renal): 40.1 µM
TGI (NCI-H522 lung): > 100 µM
TGI (MCF7 breast): > 100 µM
TGI (MOLT-4 leukemia): > 100 µM
TGI (UACC-62 melanoma): > 100 µM
TGI (NCI-H226 lung): 55.4 µM
TGI (SF-268 CNS): 69.3 µM
TGI (U251 CNS): 42.6 µM
TGI (NCI-H23 lung): > 100 µM
TGI (CCRF-CEM leukemia): > 100 µM
TGI (A549 NSCLC): > 100 µM
TGI (CAKI-1 renal): > 100 µM
TGI (NCI/ADR-RES ovarian): > 100 µM
TGI (DU-145 prostate): 50.6 µM
TGI (UACC-257 melanoma): > 100 µM
TGI (M14 melanoma): > 100 µM
TGI (PC-3 prostate): 48.3 µM
TGI (SK-MEL-5 melanoma): > 100 µM
TGI (MALME-3M melanoma): 44.2 µM
TGI (OVCAR-4 ovarian): > 100 µM
